The test system of one assay is U937. As to the kind of experiment: U937 cell inhibition assay (WST-1 cell viability). In kind it is cell-based. The note with it: Homo sapiens, U-937; U937 cells, 72-96 h, WST-1 assay, IC50 range. In short, it runs like this:
(§1)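 Cells seeded at 1000-2000/well, grown 24 h, then treated for 72-96 h with 8 concentrations (top 10 μM, 3-fold, 6 replicates). Viability by WST-1; inhibition relative to DMSO, IC50 by sigmoidal variable-slope fit.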

In assay [1] the target is histone deacetylase activity (HeLa nuclear extract). As to the kind of experiment: HDAC fluorescent activity assay (Biomol, Fluor de Lys substrate). The note with it: IC50 range. In kind it is biochemical. In short, it runs like this:
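HeLa nuclear extract served as the deacetylase source for the acetyl-lysine Fluor de Lys substrate, with or without inhibitor. Developer converts deacetylated substrate to a fluorophore.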

In another assay the test system is HUT. As to the kind of experiment: HUT cell inhibition assay (WST-1 cell viability). In kind it is cell-based. As to conditions: HUT cells, 72-96 h, WST-1 assay, IC50 range. In short, it runs like this: as §1
The subject of a further assay is HeLa cells. As to the kind of experiment: HeLa cell inhibition assay (SRB cell viability). As to conditions: Homo sapiens, HeLa, 72 h, IC50 range. The format is cell-based. In short, it runs like this:
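Log-phase cells seeded at 1000 cells/well, grown 24 h, then exposed to compound (final 20 μM top concentration) for 72 h. Viability by sulphorhodamine B staining, % inhibition relative to DMSO control. IC50 from 8-point sigmoidal variable-slope fit.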

Structures are written as SMILES.

Broadly, the IC50 is the point on the concentration scale where inhibition reaches its midpoint. In the case of `COc1ccc2c(c1)CCC2N1CC2CN(c3ncc(C(=O)NO)cn3)CC2C1` (stereo not drawn) [Example 80, N-Hydroxy 2-[5-(5-methoxyindan-1-yl)hexahydropyrrolo[3,4-c]pyrrol-2(1H)-yl]pyrimidine-5-carboxamide], the IC50 is 0.331 to 3.3 µM with U937, < 0.1 µM in assay [1], < 0.33 µM in the assay on HUT and < 0.33 µM with HeLa cells.
Regarding `O=C(NO)c1cnc(N2CC3CN(S(=O)(=O)c4cc(C(F)(F)F)cc(C(F)(F)F)c4)CC3C2)nc1` (stereo not drawn) [Example 81, N-hydroxy 2-[5-(3,5-bistrifluoromethylbenzenesulfonyl)hexahydropyrrolo[3,4-c]pyrrol-2(1H)-yl]-pyrimidine-5-carboxamide], the IC50 in the assay with U937 was 0.331 to 3.3 µM; in assay [1] it was < 0.1 µM; in the assay with HUT it was 0.331 to 3.3 µM; in the assay on HeLa cells, > 3.3 µM.
In the case of `O=C(NO)c1cnc(N2CC3CN(S(=O)(=O)c4ccc(OC(F)(F)F)cc4)CC3C2)nc1` (stereo not drawn) [Example 82, N-Hydroxy 2-[5-{[4-(trifluoromethoxy)phenyl]sulfonyl}hexahydropyrrolo[3,4-c]pyrrol-2(1H)-yl]pyrimidine-5-carboxamide], the IC50 with U937 was 0.331 to 3.3 µM; in assay [1] it was < 0.1 µM; with HUT it was 0.331 to 3.3 µM; with HeLa cells, 0.331 to 3.3 µM.
As for `O=C(NO)c1cnc(N2CC3CN(Cc4cc(F)cc(F)c4)CC3C2)nc1` (stereo not drawn) [Example 83, N-Hydroxy 2-[5-(3,5-difluorobenzyl)hexahydropyrrolo[3,4-c]pyrrol-2(1H)-yl]pyrimidine-5-carboxamide], the 50% inhibitory concentration (IC50) in the assay with U937 was < 0.33 µM; in assay [1] it was < 0.1 µM; in the assay on HUT it was < 0.33 µM; with HeLa cells, 0.331 to 3.3 µM.
`COc1ccc(CN2CC3CN(c4ncc(C(=O)NO)cn4)CC3C2)cc1` (stereo not drawn) [Example 84, N-Hydroxy 2-[5-(4-methoxybenzyl)hexahydropyrrolo[3,4-c]pyrrol-2(1H)-yl]pyrimidine-5-carboxamide]: the IC50 was 0.331 to 3.3 µM in the assay on U937, < 0.1 µM in assay [1], < 0.33 µM in the assay with HUT and 0.331 to 3.3 µM in the assay with HeLa cells.
Take `O=C(NO)c1cnc(N2CC3CN(Cc4ccc(Cl)cc4)CC3C2)nc1` (stereo not drawn) [Example 85, N-Hydroxy 2-[5-(4-chlorobenzyl)hexahydropyrrolo[3,4-c]pyrrol-2(1H)-yl]pyrimidine-5-carboxamide]: the IC50 was < 0.33 µM with U937, < 0.1 µM in assay [1], < 0.33 µM in the assay on HUT and 0.331 to 3.3 µM in the assay with HeLa cells.
With `O=C(NO)c1cnc(N2CCC3(CC2)CCN(S(=O)(=O)c2ccc4ccccc4c2)CC3)nc1` [Example 86, N-Hydroxy 2-[9-(naphthalene-2-sulfonyl)-3,9-diaza-spiro[5.5]undec-3-yl]pyrimidine-5-carboxamide], the IC50 with U937 is 0.331 to 3.3 µM; in assay [1], 0.101 to 1 µM; in the assay with HUT it was 0.331 to 3.3 µM; in the assay with HeLa cells, > 3.3 µM.
For `O=C(NO)c1ccc(N2CC3CN(Cc4ccc5ccccc5c4)CC3C2)nc1` (stereo not drawn) [Example 87], the IC50 in the assay with U937 is 0.331 to 3.3 µM; in assay [1], < 0.1 µM; in the assay on HUT, 0.331 to 3.3 µM; in the assay on HeLa cells, 0.331 to 3.3 µM.
In the case of `O=C(NO)c1ccc(N2CC3C(C2)C3NCc2ccc3ccccc3c2)cc1` (stereo not drawn) [Example 88, N-Hydroxy 4-{6-[(naphthalen-2-ylmethyl)-amino]-3-azabicyclo[3.1.0]hex-3-yl}-benzamide], the IC50 in the assay with U937 is 0.331 to 3.3 µM; in assay [1] it was 0.101 to 1 µM; with HUT it was 0.331 to 3.3 µM; in the assay with HeLa cells, 0.331 to 3.3 µM.

Values taken from patent US7932246B2, “Histone deacetylase inhibitors” (Chroma Therapeutics Ltd., priority 2005, dated 2011).
